Source: patent US20260216057A1, “PHARMACEUTICAL COMPOSITIONS FOR HERPES VIRUS” (priority 2022, published 2026)

What was measured:
[1] = Example 7: Compound 1 aqueous suspension SC PK study in monkey; type: in vivo, male cynomolgus monkeys; conditions: aqueous suspension (Form A), 10 mg/kg
Experimental: The LC-MS methodology and conditions used to analyse the helicase-primase inhibitor Compound 1 in plasma samples from the sub-cutaneous injection PK studies (Examples 7 and 10-12) are described in Table 3 and Table 4. An aqueous suspension of crystalline Compound 1 (Form A) was prepared in a 0.9% NaCl+0.5% polysorbate 80 vehicle at a concentration of 3.0 mg/mL as described in Example 3. The suspension was then dosed to male cyno monkeys at 10 mg/kg according to the Example 3 animal dosing method.

[2] = Injection site observation in pritelivir PK studies (Examples 1-4); type: in vivo, rat, monkey, dog; conditions: SC pritelivir depot formulations, Examples 1-4, 3 species
Experimental: Male Sprague Dawley (SD) rats with ~300 g body weight (ages 6-8 weeks) were used for the pharmacokinetic study. The animals had free access to food and water. The pritelivir suspensions described above were administered via sub-cutaneous injection to each animal group (n=3) with a dosing volume of 3.33 mL/kg to achieve 33.33 mg/kg and 166.67 mg/kg doses.
Male SD rats with 230-250 g body weight, ages 6-8 weeks were used for the rat PK study. The animals had free access to food and water. The prepared suspension was administered via subcutaneous injection to each animal group (n=3) with a dosing volume of 3.33 mL/kg to achieve a 10 mg/kg dose.
Male non-naïve Cyno Monkeys with −5 kg body weight was used for the monkey PK study. The animals had free access to food and water. The prepared suspension was administered via subcutaneous injection to each animal group (n=3) with a dosing volume of 3.33 mL/kg to achieve a 10 mg/kg dose.
Male non-naïve beagles were used for the dog PK study. The animals had free access to food and water. The prepared suspension was administered via subcutaneous injection to each animal group (n=3) with a dosing volume of 2 mL/kg to achieve a 10 mg/kg dose.

[3] = Example 5: comparative pritelivir solution PK study in rat following IV/SC administration; type: in vivo, male Sprague Dawley rats; conditions: for AUC(0-t): male, Sprague Dawley, plasma, solution, n = 3
Experimental: A solution of crystalline pritelivir free base (dihydrate) in 5% NMP, 5% Solutol HS15 & 90% saline at a concentration of 0.5 mg/mL was prepared as follows: • 1) A stock solution of 10 mg/mL of pritelivir (dihydrate) in NMP was prepared. • 2) Equal volumes of the pritelivir stock solution and Solutol HS15 were combined and mixed. • 3) The above solution was diluted with normal saline to reach target 0.5 mg/mL pritelivir concentration. The formulation was a clear solution.
Male Sprague Dawley (SD) rats with ~300 g body weight (ages 6-8 weeks) were used for the pharmacokinetic study. The animals had free access to food and water. The pritelivir solution described above was administered via intravenous injection to animals (n=3) with a dosing volume of 2 mL/kg to achieve a 1 mg/kg dose. For subcutaneous injection, the dosing volume of 10 mL/kg was utilized to achieve a 5 mg/kg dose.
At each time point, approximately 200 μL whole blood was collected in a K2EDTA tube via the jugular vein. Blood samples were put on ice and centrifuged at 2000 g for 5 min to obtain a plasma sample within 15 minutes. Plasma samples were stored at approximately −70° C. until analyzed by LC-MS according to the method described above.

[4] = Wald et al. (2014); cited from earlier work

Row | prolonged exposure out to (length of the study) [1] | F ([3]; intravenous (IV), 1 mg/kg) [%] | AUC(0-t) ([3]; intravenous (IV), 1 mg/kg) [µg·h/mL] | AUC(0-t) ([3]; subcutaneous (SC), 5 mg/kg) [µg·h/mL] | SMILES | adverse reactions at the injection sites [2] | human biological terminal half-life [4]
1 | at least 1392 hours | – | – | – | Cc1nc(N2CCCN(c3ccc(-c4cc(F)ccc4F)cc3)C2=O)sc1S(N)(=O)=O [Compound 1, 2-(3-(2′,5′-difluoro-[1,1′-biphenyl]-4-yl)-2-oxotetrahydropyrimidin-1(2H)-yl)-4-methylthiazole-5-sulfonamide] | – | –
2 | – | 100 | 31.8 | 185 | Cc1nc(N(C)C(=O)Cc2ccc(-c3ccccn3)cc2)sc1S(N)(=O)=O [pritelivir, N-methyl-N-(4-methyl-5-sulfamoyl-1,3-thiazol-2-yl)-2-[4-(pyridin-2-yl)phenyl]acetamide] | no adverse reactions observed | up to 80 hours
